Source: US20140228314A1, “METHOD FOR PREPARATION OF CHITOSAN OLiGOSACCHARIDES COMPOSITION AND MIXTURE OF CHITOSAN OLiGOSACCHARIDES PREPARED THEREFROM” (KUNPOONG BIO CO., LTD, priority 2013, published 2014)

Test system: SD rats
Test: Inhibition of postprandial blood glucose rise per saccharide (sucrose load)
Assay type: in vivo, rat
Details: 100 mg/kg oral with 2 g/kg sucrose, control 207.8
Description: To SD rats, 100 mg/kg (based on body weight) of each of standard substances from monosaccharide to tetra-saccharide and 2 g/kg (based on body weight) of sucrose were orally administered by 1 ml/rat using an oral administration sonde. At 30 minutes, 60 minutes and 120 minutes after the oral administration, blood was collected from the tail vein of each SD rat and a change in blood glucose concentration in venous blood was measured using a blood glucose meter (CareSens II).

SMILES | blood glucose at 30 minutes after the meal [mg/dL]
N[C@H]1[C@H](O[C@H]2[C@H](O)[C@@H](N)C(O)O[C@@H]2CO)O[C@H](CO)[C@@H](O)[C@@H]1O (stereo partly drawn) [disaccharide] | 177.6
N[C@H]1C(O)O[C@H](CO)[C@@H](O)[C@@H]1O (stereo partly drawn) [monosaccharide] | 210.7
N[C@H]1[C@H](O[C@H]2[C@H](O)[C@@H](N)[C@H](O[C@H]3[C@H](O)[C@@H](N)C(O)O[C@@H]3CO)O[C@@H]2CO)O[C@H](CO)[C@@H](O)[C@@H]1O (stereo partly drawn) [trisaccharide] | 179.4
